The results in this text go back to the supplement of paper PMC10307832.

One test has as its system NCI-H1437. Put plainly: relative viability (nuclei count vs DMSO), 5 days (fraction); higher = more cells survive. The note with it: first compound 2.53 µM. The procedure, abridged:
(§1)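 Relative viability is defined as nuclei in treated wells over nuclei in vehicle wells. Duplicate plates were run and medians reported. Lung cancer cell lines in 1536-well plates were dosed by pin tool one day after seeding, with one drug or with a fixed anchor-drug dose plus five library-drug doses (not always all listed) in √10 steps, and nuclei were counted after 5 days.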
For the compound `CCCCCCCCCCCC1=C(O)C(=O)C=C(O)C1=O` [Embelin] + NC(=O)Nc1cc(-c2cccc(F)c2)sc1C(=O)N[C@H]1CCCNC1 [AZD7762] (partner 0.2 µM), the relative viability was 1.15.

Still in this test, the particulars now being: first compound 8 µM.
`CCCCCCCCCCCC1=C(O)C(=O)C=C(O)C1=O` [Embelin] + N=C(N)NC(=N)NCCc1ccccc1 [Phenformin] (partner 250 µM) registered a relative viability of 0.243.
`CCCCCCCCCCCC1=C(O)C(=O)C=C(O)C1=O` [Embelin] + O=C(c1cc(Cc2n[nH]c(=O)c3ccccc23)ccc1F)N1CCN(C(=O)C2CC2)CC1 [Olaparib] (partner 8 µM) showed a relative viability of 0.495.
Still for that read-out and setting: in the case of `CCCCCCCCCCCC1=C(O)C(=O)C=C(O)C1=O` [Embelin] + CC(=O)Nc1cccc(-n2c(=O)n(C3CC3)c(=O)c3c(Nc4ccc(I)cc4F)n(C)c(=O)c(C)c32)c1 [Trametinib] (partner 0.02 µM) it was 0.505; in that of `CCCCCCCCCCCC1=C(O)C(=O)C=C(O)C1=O` [Embelin] + Nc1ncn([C@H]2C[C@H](O)[C@@H](CO)O2)c(=O)n1 [Decitabine] (partner 2 µM), 0.41; in that of `CCCCCCCCCCCC1=C(O)C(=O)C=C(O)C1=O` [Embelin] + NC(=O)Nc1cc(-c2cccc(F)c2)sc1C(=O)N[C@H]1CCCNC1 [AZD7762] (partner 0.2 µM), 1.2.

Another test relates to NCI-H1650. The description is as above. As to conditions: first compound 0.08 µM. Put shortly:
as §1
Compound `CCCCCCCCCCCC1=C(O)C(=O)C=C(O)C1=O` [Embelin] + N=C(N)NC(=N)NCCc1ccccc1 [Phenformin] (partner 250 µM) yielded a relative viability of 0.434.
`CCCCCCCCCCCC1=C(O)C(=O)C=C(O)C1=O` [Embelin] + O=C(c1cc(Cc2n[nH]c(=O)c3ccccc23)ccc1F)N1CCN(C(=O)C2CC2)CC1 [Olaparib] (partner 8 µM) registered a relative viability of 0.775.
With `CCCCCCCCCCCC1=C(O)C(=O)C=C(O)C1=O` [Embelin] + CC(=O)Nc1cccc(-n2c(=O)n(C3CC3)c(=O)c3c(Nc4ccc(I)cc4F)n(C)c(=O)c(C)c32)c1 [Trametinib] (partner 0.02 µM), the relative viability is 0.713.
`CCCCCCCCCCCC1=C(O)C(=O)C=C(O)C1=O` [Embelin] + Nc1ncn([C@H]2C[C@H](O)[C@@H](CO)O2)c(=O)n1 [Decitabine] (partner 2 µM) yielded a relative viability of 0.354.

The test is the same for the next values; noted with them: first compound 0.8 µM.
As for `CCCCCCCCCCCC1=C(O)C(=O)C=C(O)C1=O` [Embelin] + N=C(N)NC(=N)NCCc1ccccc1 [Phenformin] (partner 250 µM), the relative viability amounted to 0.558.
The same measure, in the same setting: as for `CCCCCCCCCCCC1=C(O)C(=O)C=C(O)C1=O` [Embelin] + O=C(c1cc(Cc2n[nH]c(=O)c3ccccc23)ccc1F)N1CCN(C(=O)C2CC2)CC1 [Olaparib] (partner 8 µM), the figure is 0.85.
Compound `CCCCCCCCCCCC1=C(O)C(=O)C=C(O)C1=O` [Embelin] + CC(=O)Nc1cccc(-n2c(=O)n(C3CC3)c(=O)c3c(Nc4ccc(I)cc4F)n(C)c(=O)c(C)c32)c1 [Trametinib] (partner 0.02 µM) had a relative viability of 0.703.
Still for that read-out and setting: as for `CCCCCCCCCCCC1=C(O)C(=O)C=C(O)C1=O` [Embelin] + Nc1ncn([C@H]2C[C@H](O)[C@@H](CO)O2)c(=O)n1 [Decitabine] (partner 2 µM), the figure is 0.362.

The test is the same for the next values; noted with them: first compound 2.53 µM.
As for `CCCCCCCCCCCC1=C(O)C(=O)C=C(O)C1=O` [Embelin] + N=C(N)NC(=N)NCCc1ccccc1 [Phenformin] (partner 250 µM), the relative viability was 0.485.
Still for that read-out and setting: as for `CCCCCCCCCCCC1=C(O)C(=O)C=C(O)C1=O` [Embelin] + O=C(c1cc(Cc2n[nH]c(=O)c3ccccc23)ccc1F)N1CCN(C(=O)C2CC2)CC1 [Olaparib] (partner 8 µM), the figure is 1.02; as for `CCCCCCCCCCCC1=C(O)C(=O)C=C(O)C1=O` [Embelin] + CC(=O)Nc1cccc(-n2c(=O)n(C3CC3)c(=O)c3c(Nc4ccc(I)cc4F)n(C)c(=O)c(C)c32)c1 [Trametinib] (partner 0.02 µM), 0.675.
The same measure, in the same setting: as for `CCCCCCCCCCCC1=C(O)C(=O)C=C(O)C1=O` [Embelin] + Nc1ncn([C@H]2C[C@H](O)[C@@H](CO)O2)c(=O)n1 [Decitabine] (partner 2 µM), the figure is 0.457.

Staying with this test, now noted: first compound 8 µM.
Consider `CCCCCCCCCCCC1=C(O)C(=O)C=C(O)C1=O` [Embelin] + N=C(N)NC(=N)NCCc1ccccc1 [Phenformin] (partner 250 µM), for which the relative viability was determined as 0.376.
Still for that read-out and setting: as for `CCCCCCCCCCCC1=C(O)C(=O)C=C(O)C1=O` [Embelin] + O=C(c1cc(Cc2n[nH]c(=O)c3ccccc23)ccc1F)N1CCN(C(=O)C2CC2)CC1 [Olaparib] (partner 8 µM), the figure is 0.817; as for `CCCCCCCCCCCC1=C(O)C(=O)C=C(O)C1=O` [Embelin] + CC(=O)Nc1cccc(-n2c(=O)n(C3CC3)c(=O)c3c(Nc4ccc(I)cc4F)n(C)c(=O)c(C)c32)c1 [Trametinib] (partner 0.02 µM), 0.703.
The compound `CCCCCCCCCCCC1=C(O)C(=O)C=C(O)C1=O` [Embelin] + Nc1ncn([C@H]2C[C@H](O)[C@@H](CO)O2)c(=O)n1 [Decitabine] (partner 2 µM) returned a relative viability of 0.384.

Another test concerns NCI-H1651. The description is as above. As to conditions: first compound 0.08 µM. The procedure, abridged: as §1
As to `CCCCCCCCCCCC1=C(O)C(=O)C=C(O)C1=O` [Embelin] + N=C(N)NC(=N)NCCc1ccccc1 [Phenformin] (partner 250 µM), the relative viability was 0.346.
Same read-out and setting: in the case of `CCCCCCCCCCCC1=C(O)C(=O)C=C(O)C1=O` [Embelin] + O=C(c1cc(Cc2n[nH]c(=O)c3ccccc23)ccc1F)N1CCN(C(=O)C2CC2)CC1 [Olaparib] (partner 8 µM) it was 0.201; in that of `CCCCCCCCCCCC1=C(O)C(=O)C=C(O)C1=O` [Embelin] + CC(=O)Nc1cccc(-n2c(=O)n(C3CC3)c(=O)c3c(Nc4ccc(I)cc4F)n(C)c(=O)c(C)c32)c1 [Trametinib] (partner 0.02 µM), 0.845.
Still for that read-out and setting: in the case of `CCCCCCCCCCCC1=C(O)C(=O)C=C(O)C1=O` [Embelin] + Nc1ncn([C@H]2C[C@H](O)[C@@H](CO)O2)c(=O)n1 [Decitabine] (partner 2 µM) it was 0.634; in that of `CCCCCCCCCCCC1=C(O)C(=O)C=C(O)C1=O` [Embelin] + NC(=O)Nc1cc(-c2cccc(F)c2)sc1C(=O)N[C@H]1CCCNC1 [AZD7762] (partner 0.2 µM), 0.452.

The same test, now with this note: first compound 0.8 µM.
Regarding `CCCCCCCCCCCC1=C(O)C(=O)C=C(O)C1=O` [Embelin] + N=C(N)NC(=N)NCCc1ccccc1 [Phenformin] (partner 250 µM), the relative viability came out at 0.412.
The same measure, in the same setting: in the case of `CCCCCCCCCCCC1=C(O)C(=O)C=C(O)C1=O` [Embelin] + O=C(c1cc(Cc2n[nH]c(=O)c3ccccc23)ccc1F)N1CCN(C(=O)C2CC2)CC1 [Olaparib] (partner 8 µM) it was 0.166; in that of `CCCCCCCCCCCC1=C(O)C(=O)C=C(O)C1=O` [Embelin] + CC(=O)Nc1cccc(-n2c(=O)n(C3CC3)c(=O)c3c(Nc4ccc(I)cc4F)n(C)c(=O)c(C)c32)c1 [Trametinib] (partner 0.02 µM), 0.905.
